Experimental data as given in ChEMBL document CHEMBL5465560, “Selectivity Literature for EUbOPEN Chemogenomic Library” (2024).
One block for each molecule: values may come before it.

What was measured:
[1] = target: T1, NUAK family SNF1-like kinase 2 (Homo sapiens) (UniProt Q9H093); assay: Selectivity interaction (KinomeScan (DiscoverX)) EUB0000655a NUAK2; details: at 10 µM
T1 sequence (whole entry): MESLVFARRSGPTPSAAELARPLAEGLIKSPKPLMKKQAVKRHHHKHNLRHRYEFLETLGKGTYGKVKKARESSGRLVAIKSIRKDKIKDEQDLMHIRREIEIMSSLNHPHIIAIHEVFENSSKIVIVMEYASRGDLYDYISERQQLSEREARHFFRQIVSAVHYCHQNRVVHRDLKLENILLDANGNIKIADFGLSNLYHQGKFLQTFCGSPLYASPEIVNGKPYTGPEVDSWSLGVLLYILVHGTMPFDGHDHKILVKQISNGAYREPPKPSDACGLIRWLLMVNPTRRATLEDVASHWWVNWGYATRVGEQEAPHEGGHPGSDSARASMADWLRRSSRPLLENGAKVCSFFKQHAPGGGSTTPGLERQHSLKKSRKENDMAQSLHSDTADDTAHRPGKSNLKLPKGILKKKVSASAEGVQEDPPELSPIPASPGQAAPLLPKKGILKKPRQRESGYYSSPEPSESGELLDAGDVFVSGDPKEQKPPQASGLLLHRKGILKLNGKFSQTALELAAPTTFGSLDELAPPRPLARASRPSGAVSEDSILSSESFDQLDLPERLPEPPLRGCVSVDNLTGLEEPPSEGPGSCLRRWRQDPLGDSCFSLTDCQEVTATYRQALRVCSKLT

[2] = target: Serine/threonine-protein kinase PAK 2 (Homo sapiens) (UniProt Q13177); assay: Selectivity interaction (Millipore kinase profiler) EUB0000124b PAK2; details: at 10 µM
Chain of Serine/threonine-protein kinase PAK 2 (Homo sapiens) (Q13177 whole entry): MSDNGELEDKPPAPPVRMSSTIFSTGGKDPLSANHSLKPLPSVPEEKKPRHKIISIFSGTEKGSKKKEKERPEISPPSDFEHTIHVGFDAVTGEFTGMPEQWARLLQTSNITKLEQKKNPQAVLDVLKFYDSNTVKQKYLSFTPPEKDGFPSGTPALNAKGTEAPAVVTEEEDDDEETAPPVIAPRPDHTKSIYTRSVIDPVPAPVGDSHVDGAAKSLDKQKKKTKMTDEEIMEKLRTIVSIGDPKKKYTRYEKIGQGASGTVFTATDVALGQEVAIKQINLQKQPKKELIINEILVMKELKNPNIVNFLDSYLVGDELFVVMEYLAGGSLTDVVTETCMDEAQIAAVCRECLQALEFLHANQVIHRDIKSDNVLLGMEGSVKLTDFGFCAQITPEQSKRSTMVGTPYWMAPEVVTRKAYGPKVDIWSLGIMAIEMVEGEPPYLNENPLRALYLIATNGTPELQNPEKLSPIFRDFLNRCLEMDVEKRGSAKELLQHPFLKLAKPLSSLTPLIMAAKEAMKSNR

[3] = target: Mitogen-activated protein kinase kinase kinase 10 (Homo sapiens) (UniProt Q02779); assay: Selectivity interaction (KinomeScan (DiscoverX)) EUB0000045b MAP3K10
Chain of Mitogen-activated protein kinase kinase kinase 10 (Homo sapiens) (Q02779 whole entry, looked up): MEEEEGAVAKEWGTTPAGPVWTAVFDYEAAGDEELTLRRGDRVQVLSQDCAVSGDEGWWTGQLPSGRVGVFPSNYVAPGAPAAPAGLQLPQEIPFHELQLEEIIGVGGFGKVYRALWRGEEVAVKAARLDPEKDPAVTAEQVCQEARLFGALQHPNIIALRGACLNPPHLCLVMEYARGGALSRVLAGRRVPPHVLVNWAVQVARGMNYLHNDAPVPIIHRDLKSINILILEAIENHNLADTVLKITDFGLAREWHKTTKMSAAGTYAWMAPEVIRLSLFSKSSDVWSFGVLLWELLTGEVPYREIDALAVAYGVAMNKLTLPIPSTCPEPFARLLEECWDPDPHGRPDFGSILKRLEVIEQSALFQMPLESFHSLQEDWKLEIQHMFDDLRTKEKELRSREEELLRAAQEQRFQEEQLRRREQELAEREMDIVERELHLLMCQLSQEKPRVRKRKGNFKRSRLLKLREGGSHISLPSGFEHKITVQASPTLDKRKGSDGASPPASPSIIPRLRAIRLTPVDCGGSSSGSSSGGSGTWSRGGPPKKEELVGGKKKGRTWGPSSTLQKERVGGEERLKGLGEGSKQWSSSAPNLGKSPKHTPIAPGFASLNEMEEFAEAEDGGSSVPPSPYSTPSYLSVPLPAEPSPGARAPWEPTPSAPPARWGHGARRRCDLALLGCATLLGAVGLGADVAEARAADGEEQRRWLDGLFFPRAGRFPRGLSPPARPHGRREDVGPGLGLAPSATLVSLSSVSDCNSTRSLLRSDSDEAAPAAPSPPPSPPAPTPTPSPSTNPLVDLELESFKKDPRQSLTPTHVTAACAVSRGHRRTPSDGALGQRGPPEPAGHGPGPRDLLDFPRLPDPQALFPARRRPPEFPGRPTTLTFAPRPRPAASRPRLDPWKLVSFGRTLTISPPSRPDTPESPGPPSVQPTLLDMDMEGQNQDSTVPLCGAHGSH

[4] = target: T2, Receptor-interacting serine/threonine-protein kinase 4 (Homo sapiens) (UniProt P57078); assay: Selectivity interaction (KinomeScan (DiscoverX)) EUB0000595a RIPK4; details: at 10 µM
T2 sequence (whole entry): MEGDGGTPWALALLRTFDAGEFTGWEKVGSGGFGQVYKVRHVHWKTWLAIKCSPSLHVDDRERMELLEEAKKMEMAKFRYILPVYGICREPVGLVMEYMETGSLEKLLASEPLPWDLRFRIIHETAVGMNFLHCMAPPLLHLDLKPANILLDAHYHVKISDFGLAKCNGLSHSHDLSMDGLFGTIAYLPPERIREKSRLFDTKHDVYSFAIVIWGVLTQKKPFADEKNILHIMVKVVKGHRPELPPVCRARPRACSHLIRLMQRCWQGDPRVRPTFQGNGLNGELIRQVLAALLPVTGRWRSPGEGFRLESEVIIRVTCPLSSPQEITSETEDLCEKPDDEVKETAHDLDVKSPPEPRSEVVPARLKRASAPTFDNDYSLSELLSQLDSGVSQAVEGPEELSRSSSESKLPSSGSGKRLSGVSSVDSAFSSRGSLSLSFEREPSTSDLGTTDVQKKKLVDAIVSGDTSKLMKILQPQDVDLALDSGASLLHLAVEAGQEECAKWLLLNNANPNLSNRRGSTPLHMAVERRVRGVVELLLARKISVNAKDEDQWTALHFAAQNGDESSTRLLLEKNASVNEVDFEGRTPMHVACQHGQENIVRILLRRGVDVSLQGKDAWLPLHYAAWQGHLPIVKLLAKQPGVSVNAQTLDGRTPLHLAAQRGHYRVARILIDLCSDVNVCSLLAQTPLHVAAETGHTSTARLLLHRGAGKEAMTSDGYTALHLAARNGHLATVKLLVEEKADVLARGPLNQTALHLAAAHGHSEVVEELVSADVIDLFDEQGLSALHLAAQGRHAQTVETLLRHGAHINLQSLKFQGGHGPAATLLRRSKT

[5] = target: T3, Serine/threonine-protein kinase TBK1 (Homo sapiens) (UniProt Q9UHD2); assay: Selectivity interaction (Upstate Kinase Profiler service (Millipore)) EUB0000056c TBK1; details: at 1 µM
T3 sequence (whole entry): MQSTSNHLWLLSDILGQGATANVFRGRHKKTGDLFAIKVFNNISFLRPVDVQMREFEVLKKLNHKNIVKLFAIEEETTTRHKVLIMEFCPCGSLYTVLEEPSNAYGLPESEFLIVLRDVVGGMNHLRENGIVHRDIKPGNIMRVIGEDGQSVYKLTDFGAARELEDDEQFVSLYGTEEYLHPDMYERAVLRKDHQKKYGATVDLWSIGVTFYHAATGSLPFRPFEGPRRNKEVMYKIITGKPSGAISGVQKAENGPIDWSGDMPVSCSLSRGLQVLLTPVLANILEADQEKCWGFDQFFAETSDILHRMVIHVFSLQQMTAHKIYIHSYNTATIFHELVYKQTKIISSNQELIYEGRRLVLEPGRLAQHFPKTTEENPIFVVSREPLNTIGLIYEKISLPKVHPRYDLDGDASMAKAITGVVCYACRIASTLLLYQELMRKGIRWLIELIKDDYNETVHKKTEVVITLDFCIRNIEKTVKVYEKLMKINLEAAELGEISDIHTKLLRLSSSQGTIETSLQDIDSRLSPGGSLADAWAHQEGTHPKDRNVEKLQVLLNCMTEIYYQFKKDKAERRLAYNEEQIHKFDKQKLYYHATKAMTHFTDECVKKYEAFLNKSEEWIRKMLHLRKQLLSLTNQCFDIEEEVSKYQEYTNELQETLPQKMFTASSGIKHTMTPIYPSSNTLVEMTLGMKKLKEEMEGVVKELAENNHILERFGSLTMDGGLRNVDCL

[6] = target: Tyrosine-protein kinase ABL1 (Homo sapiens, UniProt P00519); assay: Selectivity interaction (ActivX KiNativ screen (kinase selectivity in THP-1 cell lysates)) EUB0000639a ABL1; assay type: subcellular; details: lysate, at 0.2 µM
Chain of Tyrosine-protein kinase ABL1 (P00519 whole entry): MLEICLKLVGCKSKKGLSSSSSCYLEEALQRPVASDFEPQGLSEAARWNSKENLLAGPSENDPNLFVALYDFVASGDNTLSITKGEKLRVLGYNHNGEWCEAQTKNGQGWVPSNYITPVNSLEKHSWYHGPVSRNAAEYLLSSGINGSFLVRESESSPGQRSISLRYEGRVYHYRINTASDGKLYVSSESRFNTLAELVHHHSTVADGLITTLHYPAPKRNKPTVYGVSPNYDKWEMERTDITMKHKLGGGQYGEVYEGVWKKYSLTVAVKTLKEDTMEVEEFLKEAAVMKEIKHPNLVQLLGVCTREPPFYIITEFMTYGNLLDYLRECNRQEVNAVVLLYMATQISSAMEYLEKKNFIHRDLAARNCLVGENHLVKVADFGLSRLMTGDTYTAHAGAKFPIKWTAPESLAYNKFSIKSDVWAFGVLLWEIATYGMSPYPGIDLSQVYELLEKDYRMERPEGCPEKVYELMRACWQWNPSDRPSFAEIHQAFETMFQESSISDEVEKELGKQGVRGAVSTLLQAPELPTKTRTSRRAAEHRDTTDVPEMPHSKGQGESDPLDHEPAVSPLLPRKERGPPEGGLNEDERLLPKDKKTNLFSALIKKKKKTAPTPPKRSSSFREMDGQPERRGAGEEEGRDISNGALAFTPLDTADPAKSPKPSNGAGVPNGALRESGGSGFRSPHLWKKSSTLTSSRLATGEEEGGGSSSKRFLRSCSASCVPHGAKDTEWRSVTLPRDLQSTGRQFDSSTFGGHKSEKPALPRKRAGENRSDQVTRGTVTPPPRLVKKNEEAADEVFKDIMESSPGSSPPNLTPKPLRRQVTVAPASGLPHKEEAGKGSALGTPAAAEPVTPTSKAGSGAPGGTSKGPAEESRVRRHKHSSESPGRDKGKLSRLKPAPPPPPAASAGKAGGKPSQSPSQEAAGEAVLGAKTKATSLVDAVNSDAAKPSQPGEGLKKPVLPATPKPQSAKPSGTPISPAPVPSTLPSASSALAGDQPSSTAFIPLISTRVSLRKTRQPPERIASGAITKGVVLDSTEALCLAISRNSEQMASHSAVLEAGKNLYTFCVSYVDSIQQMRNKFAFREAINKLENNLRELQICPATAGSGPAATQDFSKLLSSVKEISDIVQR

SMILES: CN(C)CCOc1ccc(-c2nc(-c3ccncc3)c(-c3ccc4c(c3)CC/C4=N\O)[nH]2)cc1
% of control [1]: 95%

% of control [2]: 96%
SMILES: CC(=O)Nc1cccc(-n2c(=O)n(C3CC3)c(=O)c3c(Nc4ccc(I)cc4F)n(C)c(=O)c(C)c32)c1

SMILES: C=CC(=O)Nc1cc(-n2c(=O)ccc3cnc4ccc(-c5ccc(NS(C)(=O)=O)cc5)cc4c32)ccc1C
% of control ([3]; at 1 µM): 100% | % of control ([3]; at 10 µM): 100%

SMILES: COCC(=O)NC/C=C/c1ccc2ncnc(Nc3ccc(Oc4ccc(C)nc4)c(C)c3)c2c1 [CP-724714]
% of control [4]: 100%

% of inhibition [5]: 18%
SMILES: Cc1ccc(-c2ccc3c(ccc4sc5c(c43)NC[C@@H](C)NC5=O)n2)cn1

% of inhibition [6]: -42.6%
SMILES: CC[C@@H]1[C@H](F)C(=O)N[C@@H]1COc1nccc2cc(C(N)=O)c(OC)cc12 [ZIMLOVISERTIB]
